# Reference: US12358919B2, “Antibacterial compounds” (Universita' degli Studi di Siena, priority 2019, dated 2025)
# Read-outs that look alike come from different tables or passages of the source. Where a SMILES comes first, the peptide text is derived from it. Bridges are numbered along the chain shown (N, C = ends). [ ]: non-standard residue; d: D form. The star is where a group is joined. X1 = CC[C@H](C)CCCCC(=O)*; Dab = NCC[C@H](N)C(=O)O
# Assays:
# [1] = system: A. baumannii ATCC 17978; experiment: Chequerboard analysis with polymyxin E1 (average FIC index); assay type: cell-based, Acinetobacter baumannii; details: compound + polymyxin E1
# [2] = system: Staphylococcus aureus ATCC 25923; experiment: MIC, broth microdilution (direct antibacterial activity); assay type: cell-based
# Experimental: (§1) Growth inhibition or killing of bacteria was investigated using conventional methods widely described in the scientific literature. Parameters such as the Minimum Inhibitory Concentration (MIC) were determined as described in Clinical Laboratory Standard Institute (CLSI) document M07 “Methods for Dilution Antimicrobial Susceptibility Tests for Bacteria That Grow Aerobically, 11th Edition” (2018). Synergistic activity of the compounds described in the present specification were determined by measuring the variation of the MIC's compound in the absence and presence of a sub-inhibitory concentration of a suitable antibacterial agent, such as polymyxin E1. Furthermore, the Fractional Inhibitory Concentrations (FICs) were measured using a chequerboard analysis to determine the average FIC index (FICI), whose value is known to characterize the interaction between two compounds and/or drugs (≤0.5, synergistic interaction; >0.5 and <2, no interaction, additive effect; ≥2, antagonistic interaction). Furthermore, the selectivity of the compounds was investigated by measuring their cytotoxic effect on mammalian cell lines (e.g. HeLa cells).
# (§2) The MIC values were determined using the broth microdilution method as described in document M07 using Mueller-Hinton broth as culture medium and an initial bacterial inoculum size of 5×10^5 CFU/mL, with a final volume of 100 μL per well in a 96-well microplate. Bacterial strains were Bacillus subtilis ATCC 6633, Enterococcus faecalis ATCC 29212, Streptococcus pyogenes ATCC 12344 and Staphylococcus aureus ATCC 25923. The tested compound concentration ranged from 512 to 0.25 mg/L. Plates were incubated for 18-24 hours at 35±2° C. prior to results analysis.
# [3] = system: Bacillus subtilis ATCC 6633; experiment: as above; assay type: cell-based
# Experimental: as §1, §2
# [4] = system: Enterococcus faecalis ATCC 29212; experiment: as above; assay type: cell-based
# Experimental: as §1, §2
# [5] = system: Streptococcus pyogenes ATCC 12344; experiment: as above; assay type: cell-based
# Experimental: as §1, §2
# [6] = system: K. pneumoniae SI-4B; experiment: Chequerboard analysis with polymyxin E1 (average FIC index); assay type: cell-based, Klebsiella pneumoniae; details: K. pneumoniae SI-4B (colistin-resistant); compound + polymyxin E1
# [7] = system: K. pneumoniae ATCC 13833; experiment: as above; assay type: cell-based, Klebsiella pneumoniae; details: compound + polymyxin E1
# [8] = system: Klebsiella pneumoniae ATCC 13833; experiment: microbe, parasite or virus in culture; assay type: cell-based; details: for Potentiation fold: ratio MICcompound/MICcompound+polymyxin E; for MIC in presence of colistin: with 0.25xMIC polymyxin E1 (0.12 mg/L); for MIC: Klebsiella pneumoniae, ATCC13833
# Experimental: as §1
# (§3) Several methods were used to investigate the synergistic activity of the compounds, including (a) the determination of the MIC in the presence of a sub-inhibitory concentration of a suitable antibacterial agent, (b) the determination of the average FICI using a chequerboard analysis and (c) the time-kill curve analysis of a suitable agent (at a sub-inhibitory concentration) in the absence and presence of the pyrazolo[4,3-b]pyridin-6-carboxamide compound at a fixed concentration of 2 or 8 mg/L.
# (§4) The MIC of the compound was determined alone and in the presence of a fixed and sub-inhibitory concentration of a suitable antibacterial agent of the polymyxin class, such as polymyxin E1 (colistin). The potentiation fold was computed as the ratio MICcompound/MICcompound+polymyxin E. Tested organisms included Escherichia coli CCUG^TKlebsiella pneumoniae ATCC 13833 and Acinetobacter baumannii ATCC 17978, which show a colistin MIC of 0.5, 0.5 and 1 mg/L, respectively.
# [9] = system: Acinetobacter baumannii ATCC 17978; experiment: microbe, parasite or virus in culture; assay type: cell-based; details: for Potentiation fold: ratio MICcompound/MICcompound+polymyxin E; for MIC in presence of colistin: with 0.25xMIC polymyxin E1 (0.25 mg/L); for MIC: Acinetobacter baumannii, ATCC17978
# Experimental: as §1, §3, §4
# [10] = system: Escherichia coli CCUG^T; experiment: microbe, parasite or virus in culture; assay type: cell-based; details: for Potentiation fold: ratio MICcompound/MICcompound+polymyxin E; for MIC in presence of colistin: with 0.25xMIC polymyxin E1 (0.12 mg/L); for MIC: Escherichia coli
# Experimental: as §1, §3, §4
# [11] = system: E. coli CCUG^T; experiment: Chequerboard analysis with polymyxin E1 (average FIC index); assay type: cell-based, Escherichia coli; details: compound + polymyxin E1
# [12] = system: polymyxin E1-resistant Acinetobacter baumannii (strain N50) clinical isolate; assay type: cell-based; details: A. baumannii N50; colistin alone
# Experimental: as §1
# “Chequerboard” method was used to further investigate the synergistic activity of pyrazolo[4,3-b]pyridin-6-carboxamides when this compounds are combined with polymyxin E1. […]
# [13] = system: Acinetobacter baumannii (N50 strain), multidrug-resistant clinical isolate resistant to polymyxin E1; experiment: Time-kill curve analysis (bactericidal activity); assay type: cell-based; details: polymyxin E1 2 mg/L alone; inoculum 10^5 CFU/mL
# Experimental: FIG. 1: bactericidal activity on Acinetobacter baumannii (N50 strain) of polymyxin E1, 2 mg/L (square); polymyxin E1, 2 mg/L+compound Ib 32 mg/L (triangles); control (circles).
# as §3
# The kinetics of bacterial killing offers an additional mean to characterize the antibacterial activity of compounds, also in combination with other antimicrobial agents. Compounds or a combination thereof are defined as bactericides when the viable bacterial load is decreased by at least 3 log10 (EUCAST, cit.).
# This analysis was carried with a multidrug-resistant Acinetobacter baumannii clinical isolate showing resistance to polymyxin E1. The time-kill curves were generated starting from a bacterial inoculum of 10^5 CFU/mL. Bacterial count was determined at several time intervals in the absence (control) or presence of 2 mg/L polymyxin E1 (corresponding to the resistance breakpoint, EUCAST, cit.) supplemented with 32 mg/L of compound Ib (FIG. 1).
# [14] = K. pneumoniae ATCC 13833, compound alone, read-out: MIC
# [15] = A. baumannii ATCC 17978, compound alone, read-out: MIC
# [16] = E. coli CCUG^T, compound alone, read-out: MIC
# [17] = ATCC25923, S. aureus ATCC 25923, compound alone, 18-24 h, read-out: MIC
# [18] = ATCC6633, B. subtilis ATCC 6633, compound alone, 18-24 h, read-out: MIC
# [19] = ATCC29212, E. faecalis ATCC 29212, compound alone, 18-24 h, read-out: MIC
# [20] = ATCC12344, S. pyogenes ATCC 12344, compound alone, 18-24 h, read-out: MIC
Structure (SMILES),Average FIC index [7],Potentiation fold ([8]; K. pneumoniae ATCC 13833),MIC in presence of colistin ([8]; K. pneumoniae ATCC 13833),Potentiation fold ([9]; A. baumannii ATCC 17978),MIC in presence of colistin ([9]; A. baumannii ATCC 17978),Potentiation fold ([10]; E. coli CCUG^T),MIC in presence of colistin ([10]; E. coli CCUG^T),"MIC [8, 14]","MIC [9, 15]","MIC [10, 16]","MIC [2, 17]","MIC [3, 18]","MIC [4, 19]","MIC [5, 20]",also measured
"CC(C)n1c(=O)c(C(=O)NC23CC4CC(CC(C4)C2)C3)c(O)c2nn(C)cc21 [Ix, N-(Adamantan-1-yl)-4,5-dihydro-7-hydroxy-2-methyl-5-oxo-4-(2-propyl)-2H-pyrazolo[4,3-b]pyridin-6-carboxamide]",0.33,≥64,8 µg/mL,≥64,8 µg/mL,≥64,8 µg/mL,–,–,–,–,–,–,–,Average FIC index [1]: 0.27; MIC ([2]; ATCC25923): 128 µg/mL; MIC ([3]; ATCC6633): 64 µg/mL; MIC ([4]; ATCC29212): 32 µg/mL; MIC ([5]; ATCC12344): 32 µg/mL; Average FIC index [6]: 0.39; MIC [8]: > 512 µg/mL; MIC [9]: > 512 µg/mL; MIC [10]: > 512 µg/mL
"CCCCn1c2c(c(O)c(C(=O)NC34CC5CC(CC(C5)C3)C4)c1=O)N(CCO)NC2 [Ip, N-(Adamantan-1-yl)-4-(1-butyl)-4,5-dihydro-7-hydroxy-1-(2-hydroxyethyl)-5-oxo-2H-pyrazolo[4,3-b]pyridin-6-carboxamide]",0.32,≥32,16 µg/mL,≥16,32 µg/mL,≥16,32 µg/mL,> 512 µg/mL,> 512 µg/mL,> 512 µg/mL,–,–,–,–,Average FIC index [11]: 0.33
"CC[C@H](C)CCCCC(=O)N[C@@H](CCN)C(=O)N[C@H](C(=O)N[C@@H](CCN)C(=O)N[C@H]1CCNC(=O)[C@H]([C@@H](C)O)NC(=O)[C@H](CCN)NC(=O)[C@H](CCN)NC(=O)[C@H](CC(C)C)NC(=O)[C@@H](CC(C)C)NC(=O)[C@H](CCN)NC1=O)[C@@H](C)O [colistin, polymyxin E1, reference compound] (X1-[Dab]T[Dab][Dab][Dab][dL]L[Dab][Dab]T; lactam 4-C (inferred); N-terminus assumed)",–,–,–,–,–,–,–,–,–,–,–,–,–,–,"MIC Colistin [12]: 8 µg/mL; bactericidal activity (killing of the bacterial population) [13]: unable to achieve complete and irreversible killing of the bacterial population; colistin MIC ([8]; Klebsiella pneumoniae ATCC 13833, colistin alone): 0.5 µg/mL; colistin MIC ([9]; Acinetobacter baumannii ATCC 17978, colistin alone): 1 µg/mL; colistin MIC ([10]; Escherichia coli CCUG^T, colistin alone): 0.5 µg/mL"
"CC(C)n1c(=O)c(C(=O)NC2CCCCCCC2)c(O)c2nn(C)cc21 [Iz, N-Cyclooctyl-4,5-dihydro-7-hydroxy-2-methyl-5-oxo-4-(2-propyl)-2H-pyrazolo[4,3-b]pyridin-6-carboxamide]",–,≥32,16 µg/mL,≥64,8 µg/mL,≥64,8 µg/mL,> 512 µg/mL,> 512 µg/mL,> 512 µg/mL,32 µg/mL,32 µg/mL,64 µg/mL,16 µg/mL,–
"CCCCCn1c(=O)c(C(=O)NC23CC4CC(CC(C4)C2)C3)c(O)c2nn(CCO)cc21 [In, N-(Adamantan-1-yl)-4,5-dihydro-7-hydroxy-2-(2-hydroxyethyl)-5-oxo-4-(1-pentyl)-2H-pyrazolo[4,3-b]pyridin-6-carboxamide]",0.32,≥32,16 µg/mL,≥16,32 µg/mL,≥8,64 µg/mL,–,–,–,–,–,–,–,MIC [8]: > 512 µg/mL; MIC [9]: > 512 µg/mL; MIC [10]: > 512 µg/mL
"CC(C)n1c(=O)c(C(=O)NC(c2ccccc2)c2ccccc2)c(O)c2nn(C)cc21 [Iab, 4,5-Dihydro-N-(diphenylmethyl)-7-hydroxy-2-methyl-5-oxo-4-(2-propyl)-2H-pyrazolo[4,3-b]pyridin-6-carboxamide]",–,≥32,16 µg/mL,≥32,16 µg/mL,≥32,16 µg/mL,> 512 µg/mL,> 512 µg/mL,> 512 µg/mL,32 µg/mL,16 µg/mL,32 µg/mL,32 µg/mL,–
"CCCCn1c(=O)c(C(=O)Nc2ccc(F)cc2)c(O)c2nn(C)cc21 [Iae, 4-(1-Butyl)-4,5-dihydro-N-(4-fluorophenyl)-7-hydroxy-2-methyl-5-oxo-2H-pyrazolo[4,3-b]pyridin-6-carboxamide]",–,≥2,256 µg/mL,≥16,32 µg/mL,≥2,256 µg/mL,> 512 µg/mL,> 512 µg/mL,> 512 µg/mL,128 µg/mL,128 µg/mL,32 µg/mL,32 µg/mL,–
